From patent publication US8841339B2, “Synergistic antifouling compositions comprising 4-bromo-2-(4-chlorophenyl)-5-(trifluoromethyl)-1H-pyrrole-3-carbonitrile” (Janssen Pharmaceutica N.V., priority 2001, dated 2014)
Marks after values point to notes of the source that are not given here.

Assays:
[1] = test system: Chlorella vulgaris (CCAP 211/12); test: Poison plate assay in 96 multi-well plates, algae growth; format: cell-based; settings: single active ingredient, incubation time 18 days
Method: (§1) Activity against algae growth was determined with the poison plate assay. A calculated amount of a stock solution (containing either 4-bromo-2-(4-chlorophenyl)-5-(trifluoromethyl)-1H-pyrrole-3-carbonitrile, bethoxazin, DCOIT, dichlofluanide, or tolylfluanide in DMSO) was pipetted into multiwell plates in order to reach a final test concentration ranging from 0.05 to 100 ppm and mixed with a warm culture medium. The medium was inoculated with 300 μl of an algal suspension. The multi-well plates were kept at 21° C., a relative humidity of 65% and light-dark cycle of 16 hours a day (1000 Lux photoperiod).
(§2) The lowest concentration of each test compound or mixture of test compounds sufficient to inhibit visible growth was taken as the minimum inhibitory concentration (MIC). The MIC were taken as end points of activity. End points for the combinations of component (I) with one of the components (II) were then compared with the end points for the pure active test compound when employed individually.
(§3) Synergism between component (I) and one of the components (II) was determined by a commonly used and accepted method described by Kull F. C. et al. in Applied Microbiology, 9, 538-541 (1961) using the Synergy Index, which is calculated as follows for two compounds A and B:
(§4) [formula] wherein: • QA is the concentration of compound A in ppm, acting alone, which produced an end point (e.g. MIC), • Qa is the concentration of compound A in ppm, in the mixture, which produced an end point (e.g. MIC), • QB is the concentration of compound B in ppm, acting alone, which produced an end point (e.g. MIC), • Qb is the concentration of compound B in ppm, in the mixture, which produced an end point (e.g. MIC).
(§5) When the Synergy Index is greater than 1.0, antagonism is indicated. When the SI is equal to 1.0, additivity is indicated.

[2] = test system: Stichococcus bacillaris (CCAP 379/1A); test: as above; format: cell-based; settings: single active ingredient, incubation time 18 days
Method: as §1, §2, §3, §4, §5

| Structure (SMILES) | MIC-values (minimum inhibitory concentration) [1] | MIC-values (minimum inhibitory concentration) [2] |
| --- | --- | --- |
| Cc1ccc(N(SC(F)(Cl)Cl)S(=O)(=O)N(C)C)cc1 [component (II-b), 1,1-dichloro-N-[(dimethylamino)sulfonyl]-1-fluoro-N-(4-methylphenyl)-methanesulfenamide] | 25 ppm | 12.5 ppm |
| [O-][S+]1CCON=C1c1cc2ccccc2s1 (stereo not shown) [component (II-a), 3-(benzo[b]thien-2-yl)-5,6-dihydro-1,4,2-oxathiazine 4-oxide] | 1.6 ppm | 6.2 ppm |
| CCCCCCCCn1sc(Cl)c(Cl)c1=O [component (II-d), 4,5-dichloro-2-(n-octyl)-3(2H)-isothiazolone] | 1.6 ppm | 1.6 ppm |
| N#Cc1c(-c2ccc(Cl)cc2)[nH]c(C(F)(F)F)c1Br [component (I), 4-bromo-2-(4-chlorophenyl)-5-(trifluoromethyl)-1H-pyrrole-3-carbonitrile] | > 100* ppm | > 100* ppm |
| CN(C)S(=O)(=O)N(SC(F)(Cl)Cl)c1ccccc1 [component (II-c), 1,1-dichloro-N-[(dimethylamino)sulfonyl]-1-fluoro-N-phenyl-methanesulfenamide] | 25 ppm | 25 ppm |
